Structures are written as SMILES.

The test system of one data set is MeV-Alaska. In words: Viral CPE inhibition. As to conditions: compared with BM-1.
The test system of another data set is Vero cells. In words: Cytotoxicity in Vero cells.
The subject of a further data set is actively dividing cells. As to conditions: cited from earlier work.

On to `COc1ccc(-n2c(SC(C)C(=O)Nc3cc(C)nn3C)nc3ccccc32)cc1` (centres unmarked) [Compound 6j], for which the “fold reduction of potency relative to BM-1” value with MeV-Alaska is 2 fold.

`COc1ccc(-n2c(SC(C)C(=O)Nc3nc(C)cs3)nc3ccccc32)cc1` (centres unmarked) [Compound 6m]: the “fold reduction of potency relative to BM-1” value in the data set on MeV-Alaska came to 10 fold.

Take `COc1ccc(-n2c(SC(C)C(=O)Nc3cc(C)no3)nc3ccccc32)cc1` (centres unmarked) [Compound 6n]: in the data set with MeV-Alaska, the “fold reduction of potency relative to BM-1” value turned out to be 2 fold.

As for `COc1ccc(-n2c(SC(C)C(=O)Nc3ccc(C)cc3Cl)nc3ccccc32)cc1` (centres unmarked) [Compound 6p], the “acute cytotoxicity” value in the data set with Vero cells is “does not display any detectable acute cytotoxicity”. The “effect on cell proliferation” value in the data set on actively dividing cells is reported as “cytostatic effect”.

These data come from publication PMC3274751 (ACS medicinal chemistry letters, 2011).
